Results on 24 compounds are retold here after patent publication US20230365592A1 (Agios Pharmaceuticals, Inc., priority 2022, published 2023).

The test addresses T1, human PAH with the R408W mutation (Homo sapiens, UniProt P00439, R408W).
T1 construct: expressed in transfected cells
T1 sequence (P00439 1-452 R408W): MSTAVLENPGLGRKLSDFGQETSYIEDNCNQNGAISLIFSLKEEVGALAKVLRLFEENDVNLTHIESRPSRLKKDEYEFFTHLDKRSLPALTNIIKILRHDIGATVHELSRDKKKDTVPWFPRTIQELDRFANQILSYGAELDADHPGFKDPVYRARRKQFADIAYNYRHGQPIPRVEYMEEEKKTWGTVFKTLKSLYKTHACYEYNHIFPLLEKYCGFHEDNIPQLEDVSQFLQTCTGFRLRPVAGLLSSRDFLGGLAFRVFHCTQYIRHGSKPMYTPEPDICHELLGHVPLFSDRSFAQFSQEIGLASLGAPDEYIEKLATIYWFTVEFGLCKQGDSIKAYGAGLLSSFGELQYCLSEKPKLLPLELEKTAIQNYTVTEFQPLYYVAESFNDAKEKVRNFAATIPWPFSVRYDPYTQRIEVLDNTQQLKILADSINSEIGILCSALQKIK
The experiment in a line: Cell Based Phenylalanine Flux Assay.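 Further: after compound treatment, cells received sepiapterin plus isotope-labelled Phenylalanine for 4 hours, then labelled Tyrosine in the medium was quantified, 10-point 2-fold dilution series run in duplicate.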 As to conditions: A375 cells expressing human R408W PAH; 24 hrs compound incubation; 13C-Tyrosine by LC-MS; average where tested multiple times; read-out: AC50.
Take `COc1ccc2c(C(=O)N3CCc4[nH]cnc4[C@@H]3c3cc4c(Cl)cccn4n3)cnn2c1` [Example 1699, (R)-(4-(4-chloropyrazolo[1,5-a]pyridin-2-yl)-6,7-dihydro-1H-imidazo[4,5-c]pyridin-5(4H)-yl)(6-methoxypyrazolo[1,5-a]pyridin-3-yl)methanone]: the AC50 is over 5000 nM. Then `Cn1ccc(-c2nnc(C(=O)N3CCc4[nH]cnc4[C@H]3c3cc4c(OC(F)(F)F)cccn4n3)o2)n1` [Example 1702, (S)-(5-(1-methyl-1H-pyrazol-3-yl)-1,3,4-oxadiazol-2-yl)(4-(4-(trifluoromethoxy)pyrazolo[1,5-a]pyridin-2-yl)-6,7-dihydro-1H-imidazo[4,5-c]pyridin-5(4H)-yl)methanone], with under 500 nM; and `O=C(c1nnc(-c2ccn(C(F)F)n2)o1)N1CCc2[nH]cnc2[C@H]1c1cc2c(OC(F)(F)F)cccn2n1` [Example 1704, (S)-(5-(1-(difluoromethyl)-1H-pyrazol-3-yl)-1,3,4-oxadiazol-2-yl)(4-(4-(trifluoromethoxy)pyrazolo[1,5-a]pyridin-2-yl)-6,7-dihydro-1H-imidazo[4,5-c]pyridin-5(4H)-yl)methanone], with under 500 nM; and `O=C(c1nnc(-c2ccn(C(F)(F)F)n2)o1)N1CCc2[nH]cnc2[C@H]1c1cc2c(OC(F)(F)F)cccn2n1` [Example 1706, (S)-(4-(4-(trifluoromethoxy)pyrazolo[1,5-a]pyridin-2-yl)-6,7-dihydro-1H-imidazo[4,5-c]pyridin-5(4H)-yl)(5-(1-(trifluoromethyl)-1H-pyrazol-3-yl)-1,3,4-oxadiazol-2-yl)methanone], with under 500 nM. Then `O=C(c1nnc(-c2ccn(C(F)(F)F)n2)o1)N1CCc2[nH]cnc2[C@@H]1c1cc2c(OC(F)(F)F)cccn2n1` [Example 1707, (R)-(4-(4-(trifluoromethoxy)pyrazolo[1,5-a]pyridin-2-yl)-6,7-dihydro-1H-imidazo[4,5-c]pyridin-5(4H)-yl)(5-(1-(trifluoromethyl)-1H-pyrazol-3-yl)-1,3,4-oxadiazol-2-yl)methanone], with over 5000 nM; and `O=C(c1nnc(-c2ccn(C(F)(F)F)n2)o1)N1CCc2[nH]cnc2[C@H]1c1cc2c(OC(F)F)cccn2n1` [Example 1708, (S)-(4-(4-(difluoromethoxy)pyrazolo[1,5-a]pyridin-2-yl)-6,7-dihydro-1H-imidazo[4,5-c]pyridin-5(4H)-yl)(5-(1-(trifluoromethyl)-1H-pyrazol-3-yl)-1,3,4-oxadiazol-2-yl)methanone], with 500 to 1000 nM; and `O=C(c1nnc(-c2ccn(C(F)(F)F)n2)o1)N1CCc2[nH]cnc2[C@@H]1c1cc2c(OC(F)F)cccn2n1` [Example 1709, (R)-(4-(4-(difluoromethoxy)pyrazolo[1,5-a]pyridin-2-yl)-6,7-dihydro-1H-imidazo[4,5-c]pyridin-5(4H)-yl)(5-(1-(trifluoromethyl)-1H-pyrazol-3-yl)-1,3,4-oxadiazol-2-yl)methanone], with over 5000 nM. Then `Cc1cccn2nc([C@H]3c4nc[nH]c4CCN3c3nnc(C(F)F)o3)cc12` [Example 1710, (R)-2-(difluoromethyl)-5-(4-(4-methylpyrazolo[1,5-a]pyridin-2-yl)-6,7-dihydro-1H-imidazo[4,5-c]pyridin-5(4H)-yl)-1,3,4-oxadiazole], with over 5000 nM; and `Cc1cccn2nc([C@@H]3c4nc[nH]c4CCN3c3nnc(C(F)F)o3)cc12` [Example 1711, (S)-2-(difluoromethyl)-5-(4-(4-methylpyrazolo[1,5-a]pyridin-2-yl)-6,7-dihydro-1H-imidazo[4,5-c]pyridin-5(4H)-yl)-1,3,4-oxadiazole], with 500 to 1000 nM. `Cc1ccc2c(C(=O)N3CCc4[nH]cnc4[C@@H]3c3cc4c(C(F)F)cccn4n3)cnn2c1` [Example 1713, (R)-(4-(4-(difluoromethyl)pyrazolo[1,5-a]pyridin-2-yl)-6,7-dihydro-1H-imidazo[4,5-c]pyridin-5(4H)-yl)(6-methylpyrazolo[1,5-a]pyridin-3-yl)methanone]: the half-maximal activity concentration (AC50) is over 5000 nM. On to `Cc1ccc2c(C(=O)N3CCc4[nH]cnc4[C@H]3c3cc4c(Cl)cccn4n3)cnn2c1` [Example 1714, (S)-(4-(4-chloropyrazolo[1,5-a]pyridin-2-yl)-6,7-dihydro-1H-imidazo[4,5-c]pyridin-5(4H)-yl)(6-methylpyrazolo[1,5-a]pyridin-3-yl)methanone], for which the AC50 was under 500 nM. With `O=C(c1cnn2cc(C3CC3)ccc12)N1CCc2[nH]cnc2[C@H]1c1cc2c(C(F)(F)F)cccn2n1` [Example 1716, (S)-(6-cyclopropylpyrazolo[1,5-a]pyridin-3-yl)(4-(4-(trifluoromethyl)pyrazolo[1,5-a]pyridin-2-yl)-6,7-dihydro-1H-imidazo[4,5-c]pyridin-5(4H)-yl)methanone], the AC50 was under 500 nM.

For the compound `COc1ccc2c(C(=O)N3CCc4[nH]cnc4[C@H]3c3cc4cccc(C)n4n3)cnn2c1` [Example 1718, (S)-(6-methoxypyrazolo[1,5-a]pyridin-3-yl)(4-(7-methylpyrazolo[1,5-a]pyridin-2-yl)-6,7-dihydro-1H-imidazo[4,5-c]pyridin-5(4H)-yl)methanone], the half-maximal activity concentration (AC50) was in the range of 500 to 1000 nM. Take `COc1ccc2c(C(=O)N3CCc4[nH]cnc4[C@@H]3c3cc4cccc(C)n4n3)cnn2c1` [Example 1719, (R)-(6-methoxypyrazolo[1,5-a]pyridin-3-yl)(4-(7-methylpyrazolo[1,5-a]pyridin-2-yl)-6,7-dihydro-1H-imidazo[4,5-c]pyridin-5(4H)-yl)methanone]: the AC50 fell in the range of 1000 to 5000 nM. With `COc1ccc2c(C(=O)N3CCc4[nH]cnc4[C@H]3c3cc4cccc(F)n4n3)cnn2c1` [Example 1720, (S)-(4-(7-fluoropyrazolo[1,5-a]pyridin-2-yl)-6,7-dihydro-1H-imidazo[4,5-c]pyridin-5(4H)-yl)(6-methoxypyrazolo[1,5-a]pyridin-3-yl)methanone], the half-maximal activity concentration (AC50) was 500 to 1000 nM. For the compound `COc1cccn2nc([C@H]3c4nc[nH]c4CCN3C(=O)c3nnc(-c4ccn(C(F)F)n4)o3)cc12` [Example 1722, (R)-(5-(1-(difluoromethyl)-1H-pyrazol-3-yl)-1,3,4-oxadiazol-2-yl)(4-(4-methoxypyrazolo[1,5-a]pyridin-2-yl)-6,7-dihydro-1H-imidazo[4,5-c]pyridin-5(4H)-yl)methanone], the concentration at half-maximal activity (AC50) is over 5000 nM. Take `COc1cccn2nc([C@@H]3c4nc[nH]c4CCN3C(=O)c3nnc(-c4ccn(C(F)F)n4)o3)cc12` [Example 1723, (S)-(5-(1-(difluoromethyl)-1H-pyrazol-3-yl)-1,3,4-oxadiazol-2-yl)(4-(4-methoxypyrazolo[1,5-a]pyridin-2-yl)-6,7-dihydro-1H-imidazo[4,5-c]pyridin-5(4H)-yl)methanone]: the concentration at half-maximal activity (AC50) lay within 500 to 1000 nM. On to `CC(C)(F)c1nnc(C(=O)N2CCc3[nH]cnc3[C@H]2c2cc3c(OC(F)(F)F)cccn3n2)o1` [Example 1726, (S)-(5-(2-fluoropropan-2-yl)-1,3,4-oxadiazol-2-yl)(4-(4-(trifluoromethoxy)pyrazolo[1,5-a]pyridin-2-yl)-6,7-dihydro-1H-imidazo[4,5-c]pyridin-5(4H)-yl)methanone], for which the half-maximal activity concentration (AC50) was 500 to 1000 nM.

As to `CC(C)(F)c1nnc(C(=O)N2CCc3[nH]cnc3[C@H]2c2cc3c(OC(F)F)cccn3n2)o1` [Example 1728, (S)-(4-(4-(difluoromethoxy)pyrazolo[1,5-a]pyridin-2-yl)-6,7-dihydro-1H-imidazo[4,5-c]pyridin-5(4H)-yl)(5-(2-fluoropropan-2-yl)-1,3,4-oxadiazol-2-yl)methanone], the AC50 was in the range of 500 to 1000 nM. Consider `CC(C)(F)c1nnc(C(=O)N2CCc3[nH]cnc3[C@@H]2c2cc3c(OC(F)F)cccn3n2)o1` [Example 1729, (R)-(4-(4-(difluoromethoxy)pyrazolo[1,5-a]pyridin-2-yl)-6,7-dihydro-1H-imidazo[4,5-c]pyridin-5(4H)-yl)(5-(2-fluoropropan-2-yl)-1,3,4-oxadiazol-2-yl)methanone], for which the AC50 is over 5000 nM. For the compound `O=C(c1cnn2ccccc12)N1CCc2[nH]cnc2[C@H]1c1cc2c(C(F)F)cccn2n1` [Example 1730, (S)-(4-(4-(difluoromethyl)pyrazolo[1,5-a]pyridin-2-yl)-6,7-dihydro-1H-imidazo[4,5-c]pyridin-5(4H)-yl)(pyrazolo[1,5-a]pyridin-3-yl)methanone], the AC50 was under 500 nM. `O=C(c1cnn2ccccc12)N1CCc2[nH]cnc2[C@@H]1c1cc2c(C(F)F)cccn2n1` [Example 1731, (R)-(4-(4-(difluoromethyl)pyrazolo[1,5-a]pyridin-2-yl)-6,7-dihydro-1H-imidazo[4,5-c]pyridin-5(4H)-yl)(pyrazolo[1,5-a]pyridin-3-yl)methanone]: the concentration at half-maximal activity (AC50) is over 5000 nM. Consider `FC(F)c1nnc(N2CCc3[nH]cnc3[C@H]2c2cc3c(C(F)F)cccn3n2)o1` [Example 1733, (S)-2-(difluoromethyl)-5-(4-(4-(difluoromethyl)pyrazolo[1,5-a]pyridin-2-yl)-6,7-dihydro-1H-imidazo[4,5-c]pyridin-5(4H)-yl)-1,3,4-oxadiazole], for which the concentration at half-maximal activity (AC50) was under 500 nM. Take `FC(F)c1nnc(N2CCc3[nH]cnc3[C@H]2c2cc3c(C(F)(F)F)cccn3n2)o1` [Example 1735, (S)-2-(difluoromethyl)-5-(4-(4-(trifluoromethyl)pyrazolo[1,5-a]pyridin-2-yl)-6,7-dihydro-1H-imidazo[4,5-c]pyridin-5(4H)-yl)-1,3,4-oxadiazole]: the AC50 is under 500 nM.
